Measurements taken from patent US10259812B2, “CGRP receptor antagonists” (Heptares Therapeutics Limited, priority 2015, dated 2019).
Values after ≈ are worked out from the molar mass of the structure shown.

Tests used:
human CGRP receptor = biological target: T1, human CGRP receptor (Homo sapiens, UniProt O60894+Q16602); experiment: cAMP functional assay (HTRF) in SK-N-MC cells; type: cell-based; settings: read-out: pKb average (converted)
T1 construct: The human neuroblastoma cell line SK-N-MC endogenously expressing the human CGRP receptor; endogenous in cells; host or cells: SK-N-MC human neuroblastoma cells
Description: cAMP production following receptor activation was determined using the Homogeneous Time-Resolved Fluorescence (HTRF) cAMP dynamic-2 assay (Cisbio, France). The human neuroblastoma cell line SK-N-MC endogenously expressing the human CGRP receptor was seeded at a density of 12,500 cells/well in solid walled 96 well half area plates (Costar, Catalog Number 3688, Corning Life Sciences, Germany). After 16 h incubation at 37° C. media was removed and cells were incubated at 37° C. for 30 min in serum free media containing 500 μM IBMX (Tocris, Abingdon, UK, Catalog Number 2845) and increasing concentrations of test antagonist. Following this cells were challenged with an EC80 concentration of human CGRP (0.3 nM) for a further 30 min at 37° C. and then cAMP production was determined as manufacturer's instructions before plates were read on a PheraStar fluorescence plate reader (BMG LabTech, Germany). IC50 values were derived from the inhibition curve. The pIC50 values (where pIC50=−log10 IC50) were converted to a functional pKb value using a modified Cheng-Prussoff equation where Kd=agonist EC50 and L hot=agonist challenge concentration. The pKb values of certain compounds of the invention are detailed in Table 3.

[1] = Thermodynamic solubility profiling; type: physicochemical; settings: 24 h at rt
Description: A 50 mM DMSO stock solution of test compound was prepared, and from this, a working solution of 1 mM was prepared by dilution with DMSO. The UV absorbance of working solution was scanned from 220 nm to 1000 nm to identify the wavelength maxima of test compound. The 1 mM working solution was then serially diluted in DMSO to different concentrations to determine linearity/calibration curve. […] The resulting solution was then kept on a RotoSpin shaker at 50 rpm for 24 h at rt before the solution was filtered using 0.45 micron PVDF injector filters in order to remove the insoluble fraction of the compound. Subsequently, 150 uL of the filtrate is taken for quantification using a UV spectrophotometer, acquiring the optical density of standard solutions and test compound at the same wavelength maxima. From the optical density of test compound the thermodynamic solubility is calculated using the linearity/calibration curve and expressed as micromolar (μM). Solubility profiles of certain compounds of the invention are detailed in Table 6.

[2] = Pharmacokinetic profiling in cynomolgus monkey; type: in vivo, male Cynomolgus Monkeys; settings: male, plasma, acidified saline
Description: (§1) Following dosing by the routes above blood samples were taken at several time points (typically pre-dose, 0.083, 0.25, 0.5 1, 2, 4, 8 and 24 h) via serial tail vein bleeds (rat) or cephalic or saphenous vein (monkey) from the animal and centrifuged to separate plasma for analysis by LC/MS/MS assay. WinNonlin v6.2 statistics software (Pharsight Corporation, California, USA) was used to generate pharmacokinetic parameters using the non-compartmental model.

[3] = Pharmacokinetic profiling in rat; type: in vivo, male Sprague Dawley rats; settings: male, Sprague Dawley, plasma, inhaled or intranasal
Description: Prior to IN dosing rats were anaesthetised with an intramuscular dose of 25-30 mg/kg ketamine cocktail (ketamine, xylazine hydrochloride and acepromazine maleate in saline) and the dose is introduced over 20-30 s via a polyethylene PE-10 tube inserted approximately 5 mm into the nasal cavity of the rat.
as §1

[4] = biological target: T2, Human CGRP receptors (consisting of CRLR and RAMP1) (Homo sapiens, UniProt O60894+Q16602); experiment: Radioligand binding assay (3H-telcagepant displacement); settings: 0.5 nM 3H-telcagepant, Sf21 cell membranes, Ki by Cheng-Prussoff; read-out: pKi average (converted)
T2 construct: made in house; host or cells: Sf21 insect cells (baculovirus, pFastBac dual vector); membrane homogenates
Description: Human Calcitonin Receptor Like Receptor (CRLR) and human RAMP1 were cloned into Invitrogen's (ThermoFisher Scientific, UK) pFastBac dual expression vector. Transposition of CRLR/RAMP1 DNA was performed using Invitrogen's Bac-to-Bac Baculovirus Expression Systems. P0 baculovirus was generated by transfecting SF9 cells with bacmid DNA using Cellfectin® II transfection reagent (ThermoFisher Scientific, UK, catalog number 10362-100). Following P0 generation P1 virus was then generated ready for large scale infection and membrane preparation. Sf21 cells were grown in expression medium ESF921 (Expression Systems, USA, catalog number 96-001-01) supplemented with 10% heat-inactivated FBS and 1% Pen/Strep and were infected at a cell density of 2.5×10^6 cells/mL and an MOI of 2. Expression was carried out over 48 h in a shaking incubator set at 27° C. The cell culture was centrifuged at 2,500 rcf for 10 min at 4° C. The pellets were resuspended in cold PBS supplemented with Roche's Complete EDTA-free protease inhibitor cocktail tablets (Roche Applied Sciences, catalog number 05056489001), 1 mM PMSF and 1 mM EDTA. The resuspended cell paste was then centrifuged at 3,273 rcf for 12 min at 4° C. The supernatant was discarded and the pellet frozen at −80° C. The cell pellet from a 4 L culture was resuspended in buffer containing 50 mM Hepes pH 7.5, 150 mM NaCl, 8 Roche EDTA-free protease inhibitor cocktail tablets and 1 mM PMSF. The suspension was left stirring at rt for 1 h and then homogenised for 90 s at 9,500 rpm using a VDI 25 (VWR, USA) homogeniser. The cells were then lysed using a Microfluidizer processor M-110L Pneumatic (Microfluidics, USA). After lysis, the mixture was homogenised for 90 s at 9,500 rpm and then centrifuged at 335 rcf for 10 min. The supernatant was then further ultra-centrifuged at 42,000 rpm for 90 min. […]
Human CGRP receptors (consisting of CRLR and RAMP1) expressed in insect Sf21 cell membrane homogenates were re-suspended in the binding buffer (10 mM HEPES, pH 7.4, 5 mM MgCl2, 0.2% BSA) to a final assay concentration of […]. Saturation isotherms were determined by the addition of various concentrations of ^3H-telcagepant (Ho et al, The Lancet, 2008, 372, 2115) (in a total reaction volume of 250 μL) for 60 min at rt. […] Non-specific binding (NSB) was measured in the presence of 10 nM MK-3207 hydrochloride (CAS No. 957116-20-0). Radioactivity on the filter was counted (1 min) on a microbeta counter after addition of 50 μL of scintillation fluid. […] IC50 values were derived from the inhibition curve and the affinity constant (Ki) values were calculated using the Cheng-Prussoff equation (Cheng et al, Biochem. Pharmacol. 1973, 22, 3099-3108). […]

[5] = aqueous buffer, thermodynamic from solid, pH 6 (Sodium Phosphate Buffer)
[6] = aqueous buffer, thermodynamic from solid, pH 7.4 (PBS buffer)

T2 sequence (Q16602 23-461): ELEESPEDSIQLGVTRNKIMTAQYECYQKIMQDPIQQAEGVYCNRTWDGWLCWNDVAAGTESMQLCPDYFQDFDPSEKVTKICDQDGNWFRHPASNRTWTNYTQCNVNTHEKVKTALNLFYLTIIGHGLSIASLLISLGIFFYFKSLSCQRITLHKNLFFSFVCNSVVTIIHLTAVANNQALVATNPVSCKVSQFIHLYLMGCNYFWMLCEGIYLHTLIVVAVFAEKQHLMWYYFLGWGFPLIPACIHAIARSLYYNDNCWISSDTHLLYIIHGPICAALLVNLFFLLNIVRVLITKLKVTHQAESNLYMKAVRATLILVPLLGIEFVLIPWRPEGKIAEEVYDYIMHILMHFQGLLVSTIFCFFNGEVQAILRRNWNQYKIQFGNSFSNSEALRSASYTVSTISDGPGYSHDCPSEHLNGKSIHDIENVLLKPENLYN
T2 sequence (O60894 27-148): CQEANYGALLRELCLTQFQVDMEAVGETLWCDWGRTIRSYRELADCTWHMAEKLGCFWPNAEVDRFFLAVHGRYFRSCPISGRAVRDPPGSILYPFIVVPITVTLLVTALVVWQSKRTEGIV
T1 sequence (Q16602 23-461): as the sequence (Q16602 23-461) above
T1 sequence (O60894 27-148): as the sequence (O60894 27-148) above

Kb (human CGRP receptor) [nM] | solubility thermodynamic at 24 h [1, 5] [µM] | clearance ([2]; Cynomolgus monkey iv, 1 mg/kg) [mL/min/kg] | bioavailability ([2]; Cynomolgus monkey sc, 0.5 mg/kg) [%] | bioavailability [3] [%] | solubility thermodynamic at 24 h [1, 6] [µM] | Ki [4] [nM] | solubility thermodynamic at 24 h ([1]; pH 6 (Sodium Phosphate Buffer)) [µM] | solubility thermodynamic at 24 h ([1]; pH 7.4 (PBS buffer)) [µM] | Structure (SMILES)
0.251 | 1030 (≈ 688 µg/mL) | – | – | – | – | – | – | – | Cc1cc(C[C@@H](NC(=O)N2CCC(n3c(=O)[nH]c4ncccc43)CC2)C(=O)N2CCC3(CCN(C4CCNCC4)CC3)C2)cc2cn[nH]c12 [Example 1, N-{(2R)-3-(7-methyl-1H-indazol-5-yl)-1-oxo-1-[8-(piperidin-4-yl)-2,8-diazaspiro[4.5]dec-2-yl]propan-2-yl}-4-(2-oxo-2,3-dihydro-1H-imidazo[4,5-b]pyridin-1-yl)piperidine-1-carboxamide]
1.26 | 1290 (≈ 876 µg/mL) | 8 | 100 | 20 | 800 (≈ 545 µg/mL) | – | – | – | CN[C@H](C)C(=O)N1CCC2(CC1)CCN(C(=O)[C@@H](Cc1cc(C)c3[nH]ncc3c1)NC(=O)N1CCC(c3cc4ccccc4[nH]c3=O)CC1)C2 [Example 2, N-[(2R)-1-[8-(N-methyl-D-alanyl)-2,8-diazaspiro[4.5]dec-2-yl]-3-(7-methyl-1H-indazol-5-yl)-1-oxopropan-2-yl]-4-(2-oxo-1,2-dihydroquinolin-3-yl)piperidine-1-carboxamide]
0.631 | 1430 (≈ 961 µg/mL) | – | – | – | 1550 (≈ 1040 µg/mL) | 0.0794 | – | – | CN[C@H](C)C(=O)N1CCC2(CC1)CCN(C(=O)[C@@H](Cc1cc(C)c3[nH]ncc3c1)NC(=O)N1CCC(n3c(=O)[nH]c4ncccc43)CC1)C2 [Example 3, N-[(2R)-1-[8-(N-methyl-D-alanyl)-2,8-diazaspiro[4.5]dec-2-yl]-3-(7-methyl-1H-indazol-5-yl)-1-oxopropan-2-yl]-4-(2-oxo-2,3-dihydro-1H-imidazo[4,5-b]pyridin-1-yl)piperidine-1-carboxamide]
0.794 | 1350 (≈ 918 µg/mL) | – | – | – | 1150 (≈ 783 µg/mL) | 0.0794 | – | – | Cc1cc(C[C@@H](NC(=O)N2CCC(N3Cc4ccccc4NC3=O)CC2)C(=O)N2CCC3(CCN(C4CCNCC4)CC3)C2)cc2cn[nH]c12 [Example 4, N-{(2R)-3-(7-methyl-1H-indazol-5-yl)-1-oxo-1-[8-(piperidin-4-yl)-2,8-diazaspiro[4.5]dec-2-yl]propan-2-yl}-4-(2-oxo-1,4-dihydroquinazolin-3(2H)-yl)piperidine-1-carboxamide]
0.501 | 1580 (≈ 1060 µg/mL) | – | – | – | 1460 (≈ 979 µg/mL) | 0.1 | – | – | CN[C@H](C)C(=O)N1CCC2(CC1)CCN(C(=O)[C@@H](Cc1cc(C)c3[nH]ncc3c1)NC(=O)N1CCC3(CC1)OC(=O)Nc1ncccc13)C2 [Example 5, N-[(2R)-1-[8-(N-methyl-D-alanyl)-2,8-diazaspiro[4.5]dec-2-yl]-3-(7-methyl-1H-indazol-5-yl)-1-oxopropan-2-yl]-2′-oxo-1′,2′-dihydro-1H-spiro[piperidine-4,4′-pyrido[2,3-d][1,3]oxazine]-1-carboxamide]
0.631 | 1500 (≈ 1020 µg/mL) | – | – | – | 1570 (≈ 1070 µg/mL) | – | – | – | CN[C@H](C)C(=O)N1CCC2(CC1)CCN(C(=O)[C@@H](Cc1cc(C)c3[nH]ncc3c1)NC(=O)N1CCC(N3Cc4ccccc4NC3=O)CC1)C2 [Example 6, N-[(2R)-1-[8-(N-methyl-D-alanyl)-2,8-diazaspiro[4.5]dec-2-yl]-3-(7-methyl-1H-indazol-5-yl)-1-oxopropan-2-yl]-4-(2-oxo-1,4-dihydroquinazolin-3(2H)-yl)piperidine-1-carboxamide]
0.398 | 3630 (≈ 2400 µg/mL) | – | – | – | 2160 (≈ 1430 µg/mL) | 0.0501 | – | – | Cc1cc(C[C@@H](NC(=O)N2CCC(n3c(=O)[nH]c4ncccc43)CC2)C(=O)N2CCC3(CCN(c4ccncc4)CC3)C2)cc2cn[nH]c12 [Example 7, N-{(2R)-3-(7-methyl-1H-indazol-5-yl)-1-oxo-1-[8-(pyridin-4-yl)-2,8-diazaspiro[4.5]dec-2-yl]propan-2-yl}-4-(2-oxo-2,3-dihydro-1H-imidazo[4,5-b]pyridin-1-yl)piperidine-1-carboxamide]
– | – | – | – | – | – | – | 150 (≈ 130 µg/mL) | 431 (≈ 375 µg/mL) | NCCCC[C@H](NC(=O)[C@@H](Cc1cc(Br)c(O)c(Br)c1)NC(=O)N1CCC(N2Cc3ccccc3NC2=O)CC1)C(=O)N1CCN(c2ccncc2)CC1 [olcegepant, reference compound]
